Data reported in a melting point compilation (Tetko et al.; mined from patent text by program, amines drawn as free bases though some values may be those of a salt).

Row | melting point [°C] | Compound
1 | 150 to 152 | CCC(C)(C)c1ccc(OCC(=O)Nc2ccc(Nc3cccc(O)c3)cc2)c(C(C)(C)CC)c1
2 | 140 | COC(=O)C1C(C)=NC(N2CCCC2)=C(C(=O)OC(C)C)C1c1cccc([N+](=O)[O-])c1 (stereo unspecified)
3 | 125 to 126 | OCC(O)CN1CCN(C(c2ccccc2)c2ccccc2)CC1 (stereo unspecified)
4 | 95 to 98 | CN1C(=O)CC[C@]2(C)c3ccc(-c4cccc(NC(=O)C(C)(C)C)c4)cc3CC[C@@H]12
5 | > 250 | COc1ccc2ncc(C#N)c(Nc3ccc(Cl)cc3F)c2c1
6 | 127 | O=C(O)CCC(O)c1ccc(-c2ccc(Br)cc2)cc1 (stereo unspecified)
7 | 266 to 268 | CS(=O)(=O)N1CCn2c(nc3c(N)nc4cc(OCc5ccccc5)ccc4c32)C1
8 | 197 to 199 | O=C(Cc1c(Br)cnc2c(NC(=O)c3c(Cl)cccc3Cl)cccc12)NCc1ccccn1
9 | 169 | CCCN1CCc2[nH]c3ccc4scc(C)c4c3c2C1
10 | 169 to 172 | CCCCc1oc2ccccc2c1C(=O)NCc1ccc2c(-c3ccc(Cl)cc3)c(OC(Cc3ccccc3)C(=O)O)ccc2c1 (stereo unspecified)
11 | 181 to 182 | CCCOc1ccccc1-c1nc2nc(NCCN(C)C)ncc2c(=O)[nH]1
12 | 103 to 106 | CC(C)(C)c1ccc(C2(N=C=O)CCC3(CC2)OCCO3)cc1
13 | 188 to 189 | C=C(c1ccc(C(C)C)cc1)c1c(C)c(NC(=O)CC(C)(C)C)c(C)c2c1OCC2
14 | 156 to 158 | CC(C)CCS(=O)(=O)NC(=O)/C=C/c1cc(OCC2CC2)nn1Cc1ccc(C(F)(F)F)cc1Cl
15 | 100 to 101 | Cc1cc2c(c(C)c1S(=O)(=O)C[N+](=O)[O-])CCCC(C)(C)O2
16 | 337 to 339 | C[C@H](NC(=O)c1c[nH]c2ncc(-c3cn(-c4cc(Cl)ccc4F)cn3)nc12)C(C)(C)C
17 | 67 to 68 | CCNC(=O)N(NC(=O)c1cccc(Cl)c1)C(C)(C)C
18 | 184 to 185 | O=Cc1ccc(-c2ccc(O)cc2)c2ccoc12
19 | 68 to 74 | COC(=O)c1cc(C(=O)NCC(C)(C)C)ccc1-c1cc(C(=O)OC(C)(C)C)cc(F)c1C
20 | 126 to 128 | COc1ccc(NN=C(Sc2ccc(OC)cc2)C(C)=O)cc1
21 | 44 to 45 | O=C(Cl)COc1ccc(Cl)cc1Cl
22 | 153 to 154 | CC1(C)CCC(N)=CC1=O
23 | 85 to 88 | CCC(=O)Oc1cccc(NC(=O)CBr)c1
24 | 44.5 to 45 | COc1cccc2cc(CCl)oc12

Row | melting point [°C] | Compound
25 | 126 to 127 | Cn1c(CO)ccc1S(=O)(=O)N1CCC(CCO)(Sc2cc(C(C)(C)C)c(O)c(C(C)(C)C)c2)CC1
26 | 129 to 130 | c1cnc(N2CCN(Cc3n[nH]c4ccccc34)CC2)nc1
27 | 144 to 146 | O=C1CCOc2c1ccc1oc(Cl)cc21
28 | 141 to 143 | COc1cc(Nc2c(C#N)cnc3cc(/C=C/CCN4CCOCC4)c(OC)cc23)c(Cl)cc1Cl
29 | 129 to 131 | CCCCC1OC(=O)c2cc(N)ccc21 (stereo unspecified)
30 | 100 | CCOC(=O)c1sc(C(=O)OCC)c2c1OCC(CC)(CC)CO2
31 | 291 to 294 | O=C1NC(=O)C2(CCN(Cc3ccccc3)CC2)O1
32 | 198 | Cc1ccc(C(=O)N(C)Cc2cccc(-c3ccc(CC4SC(=O)NC4=O)cc3)c2)cc1 (stereo unspecified)
33 | 74 to 75 | Nc1ccc(/C=C/c2c(F)cccc2F)cc1
34 | 165 to 166 | COc1ccc(S(=O)(=O)Nc2ccccc2Nc2cccc(O)c2)cc1
35 | 110 to 111 | CC(C)(C)OC(=O)N1CCN(CCOc2cc(-c3ccccc3)on2)CC1
36 | 132 to 133 | CNC(=O)c1ccncc1I
37 | 63 to 64 | CN=C(NC#N)NCCSCc1ccsn1
38 | 68 to 72 | O=C(C=Cc1ccccc1F)C=Cc1ccccc1F
39 | 216 to 220 | COc1ccc(/C=C/c2ccc3c(Nc4cc(OC)c(Cl)cc4Cl)c(C#N)cnc3c2)cc1
40 | 101 | CCOC(=O)Cc1cnc(N)s1
41 | 68.1 to 68.7 | C=Cc1cn(-c2c(Cl)cc(C(F)(F)F)cc2Cl)nc1C
42 | 99 to 100 | C/C(=C(\C#N)C(N)=S)N1CCCN(c2ccccc2C)CC1
43 | 79 to 82 | COc1ccc(C2=C(c3c4n(c5ccccc35)CCC(COC(C)=O)C4)C(=O)OC2=O)cc1 (stereo unspecified)
44 | 149 to 150 | O=C(O)c1nc2ccccc2n(Cc2ccccc2)c1=O
45 | 164 to 166 | N#CCC(=O)Nc1ccc(OCc2cccc(F)c2)cc1
46 | 68 to 70 | CO/C=C(\C(=O)OC)c1ccccc1C
47 | 213 to 215 | O=C(O)c1cc(=O)cc(-c2ccccc2O)o1
48 | 228 to 230 | O=C(Oc1ccc([N+](=O)[O-])cc1)c1cnc2cc(I)ccc2n1

Row | melting point [°C] | Compound
49 | 89 to 90 | CC1(C)CC(SCc2c(C(F)(F)F)nn(-c3ccccc3)c2Cl)=NO1
50 | 153 to 155 | CC(C)(O)Cn1c(CO)nc2c(N)nc3cc(-c4cccc(C(=O)N5CCOCC5)c4)cnc3c21
51 | 96 | Nc1ccc(C(=O)OCCCN2CCOCC2)c(N)c1
52 | 133 to 139 | Fc1c(Cl)cc(C(/C=C/c2ccc3[nH]ccc3c2)C(F)(F)F)cc1Cl (stereo unspecified)
53 | 198 to 199 | CCCc1nc2c(N)nc3ccccc3c2n1OCC
54 | 224 to 225 | CCc1c(Sc2cc(C)cc(C)c2)[nH]c(=O)[nH]c1=O
55 | 113 to 115 | COc1ccc(C(=O)Oc2c(C)c(C)c3oc(C)c(-c4ccc(C(C)C)cc4)c3c2C)cc1
56 | 163 | CNC(=O)C(NC(=O)c1ccc(F)cc1C(F)(F)F)C(O)CO (stereo unspecified)
57 | 132 to 134 | CN(C)CCOc1ccc(-c2n[nH]c3ncccc23)cc1
58 | 127 | CCc1nc2cnc3cc(OCc4ccccc4)ccc3c2n1CC(C)C
59 | 82 to 84 | O=C(NC1CCN(CCCCc2ccccc2)C1)C12CC3CC(CC(C3)C1)C2 (stereo unspecified)
60 | 151 to 153 | Clc1ccccc1C1=NN=C(c2ccccc2Cl)C(c2ccccc2)C1 (stereo unspecified)
61 | 71 to 72 | CCOC(=O)c1cn(Cc2ccccc2)nc1OCc1ccccc1
62 | 240 to 241 | Cc1ccc(-n2nc(C(C)(C)C)cc2NC(=O)Nc2ccc(OCC(=O)N3CCOCC3)c3ccccc23)cc1
63 | 119 to 120 | CCOC(=O)CN(CCc1ccccc1)C(=O)[C@@H]1C[C@@H](SC(C)=O)CN1S(=O)(=O)c1ccc2ccccc2c1
64 | 210 to 213 | NNc1cc2c(nn1)CCN(C(=O)c1ccccc1F)C2
65 | 243 to 245 | Cc1cncn1-c1cc(C(=O)O)cc(C(F)(F)F)c1
66 | 201 to 202 | CCOC(=O)c1sc(-c2ccc3c(=O)n(CC(C)C)c(CNC(=O)OC(C)(C)C)c(-c4ccccc4)c3c2)nc1C
67 | 180 to 182 | CC(=O)NCc1ccc(CN2CCN(c3ccc(Cl)cc3)CC2)cc1
68 | 211 to 213 | NC(=O)c1nn(-c2ccc(S(N)(=O)=O)cc2)c2c1CSc1ccccc1-2
69 | 147 | CC(=O)Nc1ccc(N2CCC(N(C)Cc3ccccc3)CC2)cc1
70 | 112 to 117 | CC(C)C(=O)Nc1nsnc1-c1c(Cl)cccc1Cl
71 | 157 to 160 | COc1ccc(-c2cn(C)cc(-c3ccccc3)c2=O)cc1C
72 | 243 to 245 | COc1ccc(NC(=O)N(C)Cc2cccc3c2C(=O)N(C2CCC(=O)NC2=O)C3=O)cc1 (stereo unspecified)

Row | melting point [°C] | Compound
73 | 146 to 147 | Cc1c(Cc2cc(F)cc(Cl)c2)sc2c(-c3cccc(C(=O)NCCO)c3)cccc12
74 | 149 to 159 | O=C(O)c1nn(-c2c(Cl)cc(C(F)(F)F)cc2Cl)cc1OC(F)(F)C(F)Cl (racemic)
75 | 153 to 154 | COCOc1c(C)cc(-c2ccc(C(=O)O)cc2)cc1C
76 | 227 to 229 | O=C(O)CN1C(=O)C(=Cc2cccc(Cl)c2)SC1=S
77 | 177 to 179 | N#Cc1ccc(C=NO)c(Cl)c1
78 | 240 to 250 | O=C(Nc1ccccc1)N(CCCn1ccnc1)C1=Nc2cccc3cccc1c23
79 | 68.3 to 70.4 | CCCCCC1CCC(c2ccc(-c3cc(F)c(N)cc3F)cc2)CC1 (stereo unspecified)
80 | 151 to 152 | CCCCCC(=O)c1c(Cn2cncn2)nc2cc(OC)c(OC)cc2c1-c1ccc(OC)c(OC)c1
81 | 108 to 110 | COC(=O)C1(CC#N)C(=O)N(Cc2ccc(Br)cc2F)C(=O)c2ccccc21 (stereo unspecified)
82 | 184 | CCOC(=O)C(=NOC1CCCCO1)c1csc(NC(c2ccccc2)(c2ccccc2)c2ccccc2)n1 (stereo unspecified)
83 | 193 | Nc1nc2cccnc2n1Cc1ccco1
84 | 205 to 206 | COc1ccc(-c2cccc3c2C2(COc4cc5c(cc42)OCCO5)C(=O)N3Cc2ccccn2)cc1 (stereo unspecified)
85 | 71 to 72 | C#Cc1ccc(OC)c(OC)c1
86 | 154 to 155 | COc1ccc(-n2nc(C)c(CC(=O)O)c2C)cc1
87 | 128 to 129 | O=C(Cn1ccnc1)c1cccc(-c2ccccc2)c1
88 | 129 to 131 | COc1c(N2C[C@@H](C)N[C@@H](C)C2)c(F)cc2c(=O)c(C(=O)O)cn([C@@H]3C[C@@H]3F)c12
89 | 124 to 126 | CC(C)(C)CCNC(=O)c1ccc(CC(C)(C)C)cc1
90 | 120 | CC(C)(C)NCC(O)c1ccc(OCc2ccccc2)c(C(N)=O)c1 (stereo unspecified)
91 | 76 to 77 | CCN(C)c1cc(OC)c(C(=O)NC2CCN(Cc3ccccc3)C2)cc1Cl (stereo unspecified)
92 | 239 to 242 | O=[N+]([O-])c1ccc(Oc2ccc(Oc3ccc([N+](=O)[O-])cc3)c(P(=O)(c3ccccc3)c3ccccc3)c2)cc1
93 | 99 to 100 | CCOC(=O)C1CCNC(=O)C1=NCCc1ccccc1 (stereo unspecified)
94 | 210 | O=C(O)c1cc(NC(C(=O)O)c2ccccc2Cl)c(Cl)cc1Cl (stereo unspecified)
95 | 90 to 92 | c1ccc2c(c1)Oc1ccccc1C2NCCn1ccnc1

Row | Compound | melting point [°C]
96 | N#Cc1ncn2c1[C@@H]1CCN1C(=O)c1c-2ccc(F)c1Cl | 225 to 228
97 | Clc1cc2nc(Cl)c(N3CCNCC3)nc2cc1Cl | > 300
98 | O=[N+]([O-])c1cccc(P(=O)(O)O)c1 | 148 to 155
99 | CCS(=O)(=O)CCc1ccc2[nH]cc(CC3CCCN3C)c2c1 (stereo unspecified) | 59 to 62
100 | CC(=O)Oc1ccc2c3c1OC1C(OS(=O)(=O)C(F)(F)F)CCC4(O)C(C2)N(C)CCC314 (stereo unspecified) | 125 to 126
101 | CCCCCc1cc(O)c2c(c1)OC(C)(C)[C@@H]1CCC(=O)C[C@H]21 (relative stereo) | 120 to 134
